Laboratory results taken from patent publication US8580806B2, “Salts of 4-methyl N-[3-(4-methyl-imidazol-1-yl)-5-trifluoromethyl-phenyl]-3-(4-pyridin-3-yl-pyrimidin-2-ylamino)-benzamide” (Novartis AG, priority 2005, dated 2013).

Key:
[1] = pKa values of the free base; format: physicochemical; conditions: two values
Protocol: In a second step of the present inventive method, the 4-methyl-N-[3-(4-methyl-imidazol-1-yl)-5-trifluoromethyl-phenyl]-3-(4-pyridin-3-yl-pyrimidin-2-ylamino)-benzamide free base is treated with an appropriate acid of the formula HB. […] Suitable acids include, without limitation, inorganic acids such as hydrochloric acid, phosphoric acid, sulfuric acid, and sulfonic acid and organic acids such as methane sulfonic acid, ethane sulfonic acid, benzene sulfonic acid, p-toluene sulfonic acid, citric acid, fumaric acid, gentisic acid, malonic acid, maleic acid, and tartaric acid.

[2] = Hygroscopicity by TGA after one day at ambient temperature and 93% relative humidity; format: physicochemical; conditions: ambient temperature, listed as Control - free base form B
Protocol: The hygroscopicity of the salts of the invention was determined by TGA after one day at ambient temperature and 93% relative humidity.

[3] = Stability of solutions or suspensions (Table 15); format: physicochemical
[4] = Solid state stability: heat, humidity, xenon light (Table 15); format: physicochemical
[5] = Intrinsic Dissolution Rate (rotating disk method); format: physicochemical; conditions: 37° C., 200 rpm
Protocol: Intrinsic Dissolution Rate (IDR): Dissolution rate measurements were performed at 37° C. using the rotating disk method (VanKell Instrument). A single rotation speed of 200 rpm was used. For IDR in 0.1 N HCl, an 800 mL volume, and for IDE in water, a 200 mL volume were used. The solution was continuously pumped through a UV measuring cell and recycled to the dissolution vessel.

[6] = pH of 1% solution or suspension in water; format: physicochemical; conditions: 1% in water; listed as Free base form B
[7] = pH 3.0 buffer, ambient temperature, at least 20 hours; listed as Control - free base form B
Protocol: The solubility of the salts of the invention was determined in pH 6.8, pH 3.0 and pH 1.0 buffers by suspending 1-5 mg of each salt in 10 mL of corresponding aqueous solution. The samples were allowed to equilibrate at ambient temperature for at least 20 hours for pH 6.8 and 3.0 or about 5 hours for pH 1.0. The supernatant was filtered and used for the solubility determination by UV-VIS spectroscopy.

[8] = 0.1% solutions or suspensions, 1 week at 80° C., Acetonitrile
[9] = 0.1% solutions or suspensions, 1 week at 80° C., Ethanol
[10] = 0.1% solutions or suspensions, 1 week at 80° C., Methanol
[11] = 0.1% solutions or suspensions, 1 week at 80° C., Water (pH measured: 4.74; pH measured for HCl salt: 4.22)
[12] = 0.1% solutions or suspensions, 1 week at 80° C., pH 1 (pH measured: 1.26)
[13] = 0.1% solutions or suspensions, 1 week at 80° C., pH 2 (pH measured: 2.00)
[14] = 0.1% solutions or suspensions, 1 week at 80° C., pH 3 (pH measured: 2.94)
[15] = 0.1% solutions or suspensions, 1 week at 80° C., pH 5 (pH measured: 5.01)
[16] = 0.1% solutions or suspensions, 1 week at 80° C., pH 7 (pH measured: 6.02)
[17] = 0.1% solutions or suspensions, 1 week at 80° C., pH 9 (pH measured: 8.92)
[18] = 0.1% solutions or suspensions, 1 week at 80° C., pH 11 (pH measured: 10.86)
[19] = 0.1% solutions or suspensions, PH 1, 1 week @ 50° C.
[20] = 2% solutions or suspensions, 1 day at room temperature, 0.5% CMC
[21] = 2% solutions or suspensions, 1 day at room temperature, 0.5% HPMC cellulose 4000
[22] = 2% solutions or suspensions, 1 day at room temperature, 0.8% Tween 80
[23] = 5% solutions in DMSO, 1 day at room temperature, 1:100 dilution in pH 6.8 buffer
[24] = Solid state, 1 week 80° C., 75% relative humidity, 30% in mixture 1
[25] = Solid state, 1 week 80° C., 75% relative humidity, 30% in mixture 2
[26] = Solid state, 1 week 80° C., 75% relative humidity, Bulk (HPLC)
[27] = Solid state, 1 week 80° C., tight container, 30% in mixture 1
[28] = Solid state, 1 week 80° C., tight container, 30% in mixture 2
[29] = Solid state, 1 week 80° C., tight container, Bulk (HPLC)
[30] = Xenon light (approximately 200 kLuxh), Bulk (HPLC)

Cc1cn(-c2cc(NC(=O)c3ccc(C)c(Nc4nccc(-c5cccnc5)n4)c3)cc(C(F)(F)F)c2)cn1 [Free base (form B), 4-methyl-N-[3-(4-methyl-imidazol-1-yl)-5-trifluoromethyl-phenyl]-3-(4-pyridin-3-yl-pyrimidin-2-ylamino)-benzamide]
pKa [1]: 5.1
% moisture gain [2]: 0.08%
Appearance [3, 8]: A*
Assay [3, 8]: 100.16
Assay [% area]: bracketed % area [3, 8]: 100.00 % area
Appearance [3, 9]: A*
Assay [3, 9]: 99.85
Assay [% area]: bracketed % area [3, 9]: 99.96 % area
Appearance [3, 10]: A*
Assay [3, 10]: 98.04
Assay [% area]: bracketed % area [3, 10]: 98.90 % area
Appearance [3, 11]: A↓
Assay [3, 11]: 101.93
Assay [% area]: bracketed % area [3, 11]: 100.00 % area
Appearance [3, 12]: A*
Assay [3, 12]: 50.22
Assay [% area]: bracketed % area [3, 12]: 45.31 % area
Appearance [3, 13]: B↓
Assay [3, 13]: 96.00
Assay [% area]: bracketed % area [3, 13]: 94.86 % area
Appearance [3, 14]: A↓
Assay [3, 14]: 102.19
Assay [% area]: bracketed % area [3, 14]: 100.00 % area
Appearance [3, 15]: A↓
Assay [3, 15]: 100.80
Assay [% area]: bracketed % area [3, 15]: 100.00 % area
Appearance [3, 16]: A↓
Assay [3, 16]: 100.14
Assay [% area]: bracketed % area [3, 16]: 100.00 % area
Appearance [3, 17]: A↓
Assay [3, 17]: 99.19
Assay [% area]: bracketed % area [3, 17]: 100.00 % area
Appearance [3, 18]: A↓
Assay [3, 18]: 100.50
Assay [% area]: bracketed % area [3, 18]: 100.00 % area
Appearance [3, 19]: A*
Assay [3, 19]: 94.01
Assay [% area]: bracketed % area [3, 19]: 93.44 % area
Appearance [3, 20]: A↓
Assay [3, 20]: 98.28
Assay [% area]: bracketed % area [3, 20]: 100.00 % area
Appearance [3, 21]: A↓
Assay [3, 21]: 98.27
Assay [% area]: bracketed % area [3, 21]: 100,00 % area
Appearance [3, 22]: A↓
Assay [3, 22]: 98.78
Assay [% area]: bracketed % area [3, 22]: 100.00 % area
Appearance [3, 23]: A↓
Assay [3, 23]: 96.98
Assay [% area]: bracketed % area [3, 23]: 100.00 % area
Assay ([3]; Unstressed): 100.99
Assay [% area]: bracketed % area ([3]; Unstressed): 100.00 % area
Bulk (XRPD) ([4]; Solid state, 1 week 80° C., 75% relative humidity): No change
Assay [4, 24]: 99.38
Assay [% area]: bracketed % area [4, 24]: 100.00 % area
Assay [4, 25]: 89.37
Assay [% area]: bracketed % area [4, 25]: 96.02 % area
Assay [4, 26]: 99.97
Assay [% area]: bracketed % area [4, 26]: 100.00 % area
Bulk (XRPD) ([4]; Solid state, 1 week 80° C., tight container): No change
Assay [4, 27]: 100.11
Assay [% area]: bracketed % area [4, 27]: 100.00 % area
Assay [4, 28]: 94.28
Assay [% area]: bracketed % area [4, 28]: 97.75 % area
Assay [4, 29]: 99.77
Assay [% area]: bracketed % area [4, 29]: 100.00 % area
Bulk (XRPD) ([4]; Xenon light (approximately 200 kLuxh)): No change
Assay [4, 30]: 96.03
Assay [% area]: bracketed % area [4, 30]: 100.00 % area
Intrinsic dissolution rate ([5]; Water, listed as Free base form B): 0.0013 mg min^−1 cm^−2
Intrinsic dissolution rate ([5]; pH 1 (0.1N HCl)): 0.17 mg min^−1 cm^−2
pH of 1% solution or suspension in water [6]: 7.99
Solubility at pH 3.0 [7]: 2.8 μg/mL
